In US20260015363A1, “SUBSTITUTED PYRIMIDINE-FUSED RING INHIBITOR, METHOD FOR PREPARING SAME, AND USE THEREOF” (Suzhou Zelgen Biopharmaceuticals Co., Ltd., priority 2022, published 2026):
Where a name gives a salt, the structure may show the parent alone. Read-outs that look alike come from different tables or passages of the source.

Assays:
[1] = test system: AsPC-1 (G12D); experiment: KRAS mutant cell proliferation inhibition assay (CellTiter-Glo 3D), AsPC-1; type: cell-based, human; conditions: AsPC-1 (G12D) cells, 7 days
Procedure: (§1) Positive control: MRTX1133
(§2) • (a) The cells were thawed in T75 cell culture flasks: • (b) When 80%-90% cell confluence was achieved, the cells were passaged.
(§3) The diluted test compound was added to a 384-well cell culture plate using a nanoliter pipetting system, and replicate wells were set. An equal volume of medium was added to the positive control group; an equal volume of DMSO was added to the negative control group. The plate was centrifuged at 1000 rpm at room temperature for 1 min.
(§4) The cells were seeded into a) 384-well culture plate. An equal volume of cells was added to the negative control group, and only an equal volume of medium was added to the positive control group. The plate was centrifuged at 1000 rpm at room temperature for 1 min. The final DMSO concentration in the final compound was 0.5%. The plate was incubated in a thermostatic incubator at 37° C. with 5% CO2 for 7 days.
(§5) CellTiter-Glo® 3D was added to b) 384-well cell culture plate at 20 μL/well. The plate was shaken at 320 rpm in the dark for 20 min, and incubated at room temperature in the dark for 2 h. The luminescence values were read using an Envision multi-mode microplate reader.
(§6) The inhibition rates (IRs) of the test compounds were calculated according to the following formula: IR (%)=(1−(RLU compound−RLU blank control)/(RLU vehicle control−RLU blank control))×100%. The inhibition rates of the compounds at different concentrations were calculated in Excel, and then inhibition curves were plotted and relevant parameters including minimum inhibition rate, maximum inhibition rate and IC50 were calculated using GraphPad Prism software.

[2] = test system: MNK1 (WT); experiment: Cell proliferation inhibition assay (CellTiter-Glo 3D), MNK1; type: cell-based, human; conditions: MNK1 (WT) cells, 7 days
Procedure: as §1, §2, §3, §4, §5, §6

[3] = test system: H727 (G12V); experiment: KRAS mutant cell proliferation inhibition assay (CellTiter-Glo 3D), H727; type: cell-based, human; conditions: H727 (G12V) cells, 7 days
Procedure: as §1, §2, §3, §4, §5, §6

[4] = test system: PSN-1 (G12R); experiment: KRAS mutant cell proliferation inhibition assay (CellTiter-Glo 3D), PSN-1; type: cell-based; conditions: PSN-1 (G12R) cells, 7 days
Procedure: as §1, §2, §3, §4, §5, §6

[5] = test system: SW480 (G12V); experiment: KRAS mutant cell proliferation inhibition assay (CellTiter-Glo 3D), SW480; type: cell-based; conditions: Homo sapiens, 168 h, SW480 (G12V) cells, 7 days
Procedure: as §1, §2, §3, §4, §5, §6

SMILES | IC50 [1] [nM] | IC50 [3] [nM] | IC50 ([1]; Homo sapiens, ASPC1, 168 h) [nM] | IC50 ([3]; Homo sapiens, NCI-H727, 168 h) [nM] | IC50 [5] [nM] | IC50 [2] [nM] | IC50 ([4]; read-out: PSN1 IC50) [µM] | IC50 ([2]; Homo sapiens, 168 h) [nM] | IC50 ([4]; Homo sapiens, PSN1, 168 h) [µM]
CCc1c(F)ccc2cc(O)cc(N3CCc4c(nc(OCC56CCCN5C[C@@]5(C6)CC5(F)F)nc4N4CCCn5nc(C(=O)N(C)C)cc5C4)C3)c12 (stereo in doubt) [Example B-14, 5-(2-(((1R,7a′R)-2,2-Difluorodihydro-1′H,3′H-spiro[cyclopropane-1,2′-pyrrolizin]-7a′ (5′H)-yl)methoxy)-7-(8-ethyl-7-fluoro-3-hydroxynaphthalen-1-yl)-5,6,7,8-tetrahydropyrido[3,4-d]pyrimidin-4-yl)-N,N-dimethyl-5,6,7,8-tetrahydro-4H-pyrazolo[1,5-a][1,4]diazepine-2-carboxamide hydrochloride] | – | – | 26.9 | 127 | – | – | – | 92.3 | 7.56
Nc1cc(Cl)c(C(F)(F)F)c(-c2ncc3c(N4CCCC5(CCO5)C4)nc(OC[C@@]45CCCN4C[C@@]4(CC4(F)F)C5)nc3c2F)c1 (stereo partly drawn) [Example A-14, 3-Chloro-5-(2-(((1S,7a'S)-2,2-difluorodihydro-1′H,3′H-spiro[cyclopropane-1,2′-pyrrolizin]-7a′ (5′H)-yl)methoxy)-8-fluoro-4-(1-oxa-6-azaspiro[3.5]nonan-6-yl)pyrido[4,3-d]pyrimidin-7-yl)-4-(trifluoromethyl)aniline] | – | – | 61.1 | 242 | – | – | – | 133 | > 10
CN(C)C(=O)c1cc2n(n1)CCCN(c1nc(OC[C@@]34CCCN3C[C@@]3(CC3(F)F)C4)nc3c(F)c(-c4cc(N)cc(Cl)c4C(F)(F)F)ncc13)C2 [Example A-25, 5-(7-(5-Amino-3-chloro-2-(trifluoromethyl)phenyl)-2-(((1S,7a'S)-2,2-difluorodihydro-1′H,3′H-spiro[cyclopropane-1,2′-pyrrolizin]-7a′ (5′H)-yl)methoxy)-8-fluoropyrido[4,3-d]pyrimidin-4-yl)-N,N-dimethyl-5,6,7,8-tetrahydro-4H-pyrazolo[1,5-a][1,4]diazepine-2-carboxamide] | – | – | 33.6 | 141 | – | – | – | 66.3 | > 10
C#Cc1c(F)ccc2cc(O)cc(-c3ncc4c(N(C)[C@H]5C[C@@H]5F)nc(OC[C@@]56CCCN5C[C@@]5(CC5(F)F)C6)nc4c3F)c12 [Example A-44, 4-(2-(((15,7a'S)-2,2-Difluorodihydro-1′H,3′H-spiro[cyclopropane-1,2′-pyrrolizin]-7a′ (5′H)-yl)methoxy)-8-fluoro-4-(((trans)-2-fluorocyclopropyl)(methyl)amino)pyrido[4,3-d]pyrimidin-7-yl)-5-ethynyl-6-fluoronaphthalen-2-ol] | – | – | 25.1 | – | 7.13 | – | – | – | –
CCc1c(F)ccc2cc(O)cc(-c3ncc4c(N(C)[C@H]5C[C@@H]5F)nc(OC[C@@]56CCCN5C[C@@]5(CC5(F)F)C6)nc4c3F)c12 [Example A-45, 4-(2-(((1,5,7a'S)-2,2-Difluorodihydro-1′H,3′H-spiro[cyclopropane-1,2′-pyrrolizin]-7a′ (5′H)-yl)methoxy)-8-fluoro-4-(((trans)-2-fluorocyclopropyl)(methyl)amino)pyrido[4,3-d]pyrimidin-7-yl)-5-ethyl-6-fluoronaphthalen-2-ol] | – | – | 74.4 | – | 41 | – | – | – | –
CN(c1nc(OC[C@@]23CCCN2C[C@@]2(CC2(F)F)C3)nc2c(F)c(-c3cc(N)cc(Cl)c3C(F)(F)F)ncc12)[C@H]1C[C@@H]1F [Example A-46, 7-(5-Amino-3-chloro-2-(trifluoromethyl)phenyl)-2-(((15,7a'S)-2,2-difluorodihydro-1′H,3′H-spiro[cyclopropane-1,2′-pyrrolizin]-7a′ (5′H)-yl)methoxy)-8-fluoro-N-((trans)-2-fluorocyclopropvl)-N-methylpyrido[4,3-d]pyrimidin-4-amine] | – | – | 732 | – | 482 | – | – | – | –

Continued, in another order:

IC50 [1] [nM] | IC50 [3] [nM] | IC50 ([1]; Homo sapiens, ASPC1, 168 h) [nM] | IC50 ([3]; Homo sapiens, NCI-H727, 168 h) [nM] | IC50 [5] [nM] | SMILES | IC50 [2] [nM] | IC50 ([4]; read-out: PSN1 IC50) [µM] | IC50 ([2]; Homo sapiens, 168 h) [nM] | IC50 ([4]; Homo sapiens, PSN1, 168 h) [µM]
> 1000 | 1990 | – | – | – | CCc1c(F)ccc2cc(O)cc(-c3ncc4c(N5CCC[C@](C)(O)C5)nc(OCC56CCCN5CC5(C6)CC5(F)F)nc4c3F)c12 (stereo in doubt) [Example A-13A, (S)-1-(2-(((trans)-2,2-difluorodihydro-1′H,3′H-spiro[cyclopropane-1,2′-pyrrolizin]-7a′ (5′H)-yl)methoxy)-7-(8-ethyl-7-fluoro-3-hydroxynaphthalen-1-yl)-8-fluoropyrido[4,3-d]pyrimidin-4-yl)-3-methylpiperidin-3-ol] | 634 | > 10 | – | –
18.8 | 51.7 | – | – | – | CCc1c(F)ccc2cc(O)cc(-c3ncc4c(N5CCC[C@@](C)(O)C5)nc(OCC56CCCN5CC5(C6)CC5(F)F)nc4c3F)c12 (stereo in doubt) [Example A-13B, (R)-1-(2-(((trans)-2,2-difluorodihydro-l′H,3′H-spiro[cyclopropane-1,2′-pyrrolizin]-7a′ (5′H)-yl)methoxy)-7-(8-ethyl-7-fluoro-3-hydroxynaphthalen-1-yl)-8-fluoropyrido[4,3-d]pyrimidin-4-yl)-3-methylpiperidin-3-ol] | 12.9 | 0.506 | – | –
– | – | 164 | 450 | – | C#Cc1c(F)ccc2cc(O)cc(-c3ncc4c(N5CCCC6(CCO6)C5)nc(OC[C@@]56CCCN5C[C@@]5(CC5(F)F)C6)nc4c3F)c12 (stereo partly drawn) [Example A-15, 4-(2-(((1.S,7a'S)-2,2-difluorodihydro-1′H,3′H-spiro[cyclopropane-1,2′-pyrrolizin]-7a′ (5′H)-yl)methoxy)-8-fluoro-4-(1-oxa-6-azaspiro[3.5]nonan-6-yl)pyrido[4,3-d]pyrimidin-7-yl)-5-ethynyl-6-fluoronanhthalen-2-ol] | – | – | 171 | > 10
– | – | 11.1 | 101 | – | CCc1c(F)ccc2cc(O)cc(-c3ncc4c(N5CCCn6nc(C(=O)N(C)C)cc6C5)nc(OC[C@@]56CCCN5C[C@@]5(CC5(F)F)C6)nc4c3F)c12 [Example A-24, 5-(2-(((1S,7a'S)-2,2-Difluorodihydro-1′H,3′H-spiro[cyclopropane-1,2′-pyrrolizin]-7a′ (5′H)-yl)methoxy)-7-(8-ethyl-7-fluoro-3-hydroxynaphthalen-1-yl)-8-fluoropyrido[4,3-d]pyrimidin-4-yl)-N,N-dimethyl-5,6,7,8-tetrahydro-4H-pyrazolo[1,5-a][1,4]diazepine-2-carboxamide] | – | – | 19.7 | > 10
– | – | > 1000 | 7370 | – | CCc1c(F)ccc2cc(O)cc(-c3ncc4c(N5CCC[C@@]6(C5)NC(=O)NC6=O)nc(OC[C@@]56CCCN5C[C@@]5(CC5(F)F)C6)nc4c3F)c12 [Example A-26, (S)-7-(2-(((1S,7a'S)-2,2-Difluorodihydro-1′H,3′H-spiro[cyclopropane-1,2′-pyrrolizin]-7a′ (5′H)-yl)methoxy)-7-(8-ethyl-7-fluoro-3-hydroxynaphthalen-1-yl)-8-fluoropyrido[4,3-d]pyrimidin-4-yl)-1,3,7-triazaspiro[4.5]decane-2,4-dione] | – | – | 1620 | > 10
– | – | 23.2 | 35.9 | – | CCc1c(F)ccc2cc(O)cc(-c3ncc4c(N5CCC[C@]6(C5)NC(=O)NC6=O)nc(OC[C@@]56CCCN5C[C@@]5(CC5(F)F)C6)nc4c3F)c12 [Example A-27, (R)-7-(2-(((1S,7a'S)-2,2-Difluorodihydro-1′H,3′H-spiro[cyclopropane-1,2′-pyrrolizin]-7a′ (5′H)-yl)methoxy)-7-(8-ethyl-7-fluoro-3-hydroxynaphthalen-1-yl)-8-fluoropyrido[4,3-d]pyrimidin-4-yl)-1,3,7-triazaspiro[4.5]decane-2,4-dione] | – | – | 5.35 | 0.0797
– | – | 572 | – | 307 | CCc1c(F)ccc2cc(O)cc(-c3ncc4c(N5CCOCCC5C)nc(OC[C@@]56CCCN5C[C@@]5(CC5(F)F)C6)nc4c3F)c12 (stereo partly drawn) [Example A-37, 4-(2-(((1S,7a'S)-2,2-Difluorodihydro-1′H,3′H-spiro[cyclopropane-1,2′-pyrrolizin]-7a′ (5′H)-yl)methoxy)-8-fluoro-4-(5-methyl-1,4-oxazepan-4-yl)pyrido[4,3-d]pyrimidin-7-yl)-5-ethyl-6-fluoronaphthalen-2-ol] | – | – | – | –
– | – | 31.6 | 119 | – | CCc1c(F)ccc2cc(O)cc(-c3ncc4c(N5CCOCC(C)(O)C5)nc(OC[C@@]56CCCN5C[C@@]5(CC5(F)F)C6)nc4c3F)c12 (stereo partly drawn) [Example A-38, 4-(2-(((1S,7a'S)-2,2-Difluorodihydro-1′H,3′H-spiro[cyclopropane-1,2′-pyrrolizin]-7a′ (5′H)-yl)methoxy)-7-(8-ethyl-7-fluoro-3-hydroxynaphthalen-1-yl)-8-fluoropyrido[4,3-d]pyrimidin-4-yl)-6-methyl-1.4-oxazenan-6-ol] | – | – | 21.4 | > 10
